How the values were obtained:
[1] = test system: isolated human eosinophils; assay: Inhibition of histamine-induced chemotaxis of IL-5-primed human eosinophils; assay type: cell-based; conditions: for IC50: Homo sapiens, Eosinophil, histamine 30 nM as agonist, antagonists at 10, 1 and 0.1 μM, preliminary results, FIG. 10C, read-out: IC50 for antagonising histamine-induced chemotaxis of human eosinophils; for reduction of the chemotactic response of isolated human eosinophils to histamine dihydrochloride: antagonists at a single concentration of 10 μM, IL-5-primed eosinophils, FIG. 10B
Description: (§1) Eosinophils were isolated from peripheral blood as previously described (Hansel, T T., De Vries I J., Iff T., Rihs S., Wandzilak M., Betz S., Blaser K. and Walker C. (1991). An improved immunomagnetic procedure for the isolation of highly purified human blood eosinophils. J. Imm. Meth. 145:105-10). Chemotaxis was measured using a 48-well Boyden chamber (Neuro Probe Inc., Cabin John, Md., USA). Agonists were diluted in RPMI media (BioWhittaker, Walkersville, Md., USA) containing 0.1% bovine serum albumin (BSA) (Gibco BRL, Gaithersburg, Md., USA) and added to the bottom wells of the chemotaxis chamber. A 5 µm PVP-free polycarbonate filter was used to separate the wells of the chamber (Neuro Probe Inc., Cabin John, Md., USA). Eosinophils were resuspended in RPMI/BSA media at a concentration of 2.5×10^6 cells per ml. 50 µl of this cell suspension were then added to the upper chamber. Chambers were incubated for 45 minutes in a 5% CO2-humidified atmosphere at 37° C. After the incubation period, the filters were removed, the top side was scraped to remove non-migrating cells, and the filters were stained with Diff-Quik stain (Dade Behring AG, Dudingen, Switzerland). The number of cells migrating (bottom of filter) were counted by light microscopy. The mean of three high-powered fields was then determined. The number of migrating cells was calculated by subtracting […]. All compounds were purchased from Sigma-RBI.
Antagonist experiments were performed to further characterise the histamine receptor subtype involved in the eosinophil chemotactic response to histamine. […] Antagonists were used at a single concentration of 10 μM. Antagonists tested were: mepyramine maleate (histamine H1 antagonist), cimetidine (histamine H2 antagonist), thioperamide (histamine H3 antagonist) and clobenpropit (histamine H3 antagonist).
A further experiment was performed to determine the IC50 of both thioperamide and clobenpropit (histamine H3 antagonists) for inhibiting isolated human eosinophil in vitro chemotaxis. Methodology was as above, using thioperamide and clobenpropit at 10 μM, 1 μM and 0.1 μM concentrations (Histamine, as the agonist, was used at 30 nM).

PFI-013 [2] = biological target: T1, PFI-013 (Homo sapiens, UniProt Q9H3N8); assay: FLIPR functional cell-based assay (intracellular calcium) in PFI-013-transfected HEK293 cells expressing mouse Gα15; design: expressed in transfected cells; host or cells: HEK293 cells expressing mouse Gα15, transient transfection; conditions: for activation of PFI-013 by histaminergic compounds: FIG. 8, rank order of potency N-α-methyl histamine > histamine > R-α-methyl histamine = histamine-1-methyl
T1 sequence (Q9H3N8 whole entry): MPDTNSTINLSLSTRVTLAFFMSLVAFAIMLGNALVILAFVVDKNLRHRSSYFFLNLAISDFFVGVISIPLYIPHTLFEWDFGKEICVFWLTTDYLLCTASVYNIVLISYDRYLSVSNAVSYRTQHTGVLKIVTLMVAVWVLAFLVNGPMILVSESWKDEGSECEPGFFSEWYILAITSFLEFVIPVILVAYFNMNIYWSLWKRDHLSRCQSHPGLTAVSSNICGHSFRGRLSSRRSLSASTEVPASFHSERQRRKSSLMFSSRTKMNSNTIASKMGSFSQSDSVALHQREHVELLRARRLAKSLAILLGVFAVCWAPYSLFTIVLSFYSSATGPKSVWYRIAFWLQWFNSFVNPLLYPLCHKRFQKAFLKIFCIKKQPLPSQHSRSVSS
Description: Fluorescence Imaging Plate Reader (FLIPR®) technology was employed as a means to detect activation of PFI-013 by histamine or histamine agonists in a cell-based assay.
5×10^6 Human Embryonic Kidney (HEK) 293 cells expressing the mouse Gα15 gene (from here on called ‘293 cells’), were transiently transfected with 7.5 μg of PFI-013 (contained within the pcDNA4HISmaxB (Invitrogen) plasmid) vector, or vector alone, using Lipofectamine Plus® reagent (Gibco BRL) as per the manufacturer's protocol. The PFI-013 cDNA had been cloned into pcDNA4HISmaxB using restriction sites KpnI and NotI to excise the PFI-013 cDNA from pcDNA3.1/V5-His-TOPO and to insert the cDNA into pcDNA4HISmaxB using standard molecular biology techniques (e.g. according to Sambrook, et al., eds. (1989) Molecular Cloning: A Laboratory Manual, Cold Spring Harbor Laboratory Press, New York, N.Y., USA) and using T4 DNA ligase to join the fragments; pcDNA4HISmaxB was used as it contains elements that up-regulate the level of gene transcription over standard pcDNA3.1 vectors). 24 hrs post-transfection, the cells were detached from the flask using Trypsin/EDTA solution (LTI) and seeded into a black sided, Poly-D-lysine-treated, 96-well plate (Becton Dickinson) at 5×10^4 cells/well density. The plates were left overnight to allow the cells to adhere to the bottom of the wells. The medium was removed from the cells and replaced with 100 μl warm (37° C.) dye loading solution (50 μg Fluo3 (Molecular probes) in 20 μl DMSO+20% pluronic acid in DMSO, added to 11 ml Dulbecco's Modified Eagles Medium containing 1×Probenecid (100×Probenecid—0.71 g Probenecid was dissolved in 5 ml 1M NaOH and 5 ml Dulbeccos' Phosphate Buffered Saline (PBS), per plate; Probenecid (Molecular Devices) inhibits activity of the anion transport protein, thus improving dye loading). The plates were then incubated for 1 hr at 37° C. Plates were subsequently washed with 250 μl of wash buffer per well (5 ml 100×Probenecid stock+495 ml PBS, pH 7.4) 4 times. The plates were returned to the 37° C./5% CO2 incubator for 30 mins prior to processing within the FLIPR® instrument. The FLIPR® processing involved reading the fluorescence for all samples for 2 minutes; during this time the fluorescence baseline was determined for 10 seconds. The desired amount of compound (i.e. histamine or histamine agonists) was then automatically transferred to the wells and the fluorescence was continuously monitored for the remainder of the time. All compounds were diluted in wash buffer.
Using methodology as described in detail above, the effect of histamine on the functional activation of PFI-013 was investigated.
Using methodology as described in detail above, the effect of histaminergic compounds on the functional activation of PFI-013 was investigated.
FIG. 8 depicts the action of various histaminergic compounds (columns 2 to 10) serially diluted from […] (rows A and B) down to 0.5 μM in duplicate (rows G and H), on PFI-013-transfected 293 cells (FIG. 8A) or vector-only transfected 293 cells (FIG. 8B). Remaining wells contained buffer only with no compound.

[3] = test system: isolated human eosinophils; assay: Human eosinophil chemotaxis assay (Boyden chamber) with histamine receptor subtype-selective agonists; assay type: cell-based; conditions: in vitro, agonist in bottom wells, 45 minutes, FIG. 9
Description: as §1
Experiments were performed to characterise the histamine receptor subtype involved in the eosinophil chemotactic response to histamine. Methodology was as detailed above. […] Eotaxin was included as a positive control for eosinophil chemotaxis.

PFI-013 [4] = biological target: T1, PFI-013; conditions: 3H-histamine 0.72-1500 nM; difference between PFI-013-transfected and mock-transfected CHO-K1 membranes; preliminary data, FIG. 6
[5] = test system: isolated human eosinophils; conditions: described by Raible et al. (1994); cited from earlier work

Compound: NC(=NCc1ccc(Cl)cc1)SCCCc1cnc[nH]1 [clobenpropit]
- IC50 [1]: 1.5 µM
- reduction of the chemotactic response of isolated human eosinophils to histamine dihydrochloride [1]: greatest effect on the reduction of the chemotactic response
- activation of PFI-013 by histaminergic compounds (PFI-013 [2]): no activation of PFI-013 could be detected

Compound: CNCCc1cnc[nH]1 [N-α-methyl histamine]
- activation of PFI-013 by histaminergic compounds (PFI-013 [2]): activated

Compound: N=C(N)SCCc1cnc[nH]1 [Imetit]
- chemotactic response of isolated human eosinophils [3]: displayed no chemotactic activity
- activation of PFI-013 by histaminergic compounds (PFI-013 [2]): no activation of PFI-013 could be detected

Compound: NCCc1c[nH]cn1 [histamine]
- binding of histamine to PFI-013 (PFI-013 [4]): binds to PFI-013, albeit with relatively low affinity
- activation of PFI-013 by histaminergic compounds (PFI-013 [2]): activated
- activation of PFI-013 by histamine (transient increase in intracellular calcium) (PFI-013 [2]; at the 10 μM concentration, tested 10 μM serially diluted in log steps down to 10 pM, versus vector-only cells, FIG. 7): specific activation of PFI-013

Compound: CN(C)CCCSC(=N)N [Dimaprit]
- chemotactic response of isolated human eosinophils [3]: displayed no chemotactic activity
- activation of PFI-013 by histaminergic compounds (PFI-013 [2]): no activation of PFI-013 could be detected

Compound: IL-5: interleukin-5, used to prime the eosinophils for chemotaxis studies
- effect of IL-5 priming of eosinophils on the chemotactic response to histamine ([1]; IL-5 pretreatment of the eosinophils, FIG. 10A): enhance the chemotactic response to histamine

Compound: COc1ccc2c(c1OC)C(=O)O[C@@H]2[C@H]1c2c(cc3c(c2OC)OCO3)CCN1C [noscapine]
- activation of PFI-013 by histaminergic compounds (PFI-013 [2]): no activation of PFI-013 could be detected

Compound: S=C(NC1CCCCC1)N1CCC(c2cnc[nH]2)CC1 [thioperamide]
- IC50 [1]: 0.83 µM
- reduction of the chemotactic response of isolated human eosinophils to histamine dihydrochloride [1]: greatest effect on the reduction of the chemotactic response

Compound: C[C@@H](N)Cc1c[nH]cn1 [R-α-methyl histamine]
- activation of PFI-013 by histaminergic compounds (PFI-013 [2]): activated

Compound: CC(CCCCC(=O)Nc1ccc(C(F)(F)F)cc1)NCCc1cnc[nH]1.O=C(O)/C=C\C(=O)O.O=C(O)/C=C\C(=O)O (stereo not shown) [HTMT, HTMT dimaleate]
- chemotactic response of isolated human eosinophils [3]: very weak chemotactic response only at the highest concentration tested (1 μM)

Compound: N[C@@H](Cc1c[nH]cn1)C(=O)O [L-histidine]
- activation of PFI-013 by histaminergic compounds (PFI-013 [2]): no activation of PFI-013 could be detected

Compound: CNC(=S)NCCCCc1cnc[nH]1 [Burimamide]
- chemotactic response of isolated human eosinophils [3]: displayed no chemotactic activity
- effect on intracellular Ca2+ production in isolated human eosinophils [5]: partial agonist effect

Compound: Cn1cnc(CCN)c1 [histamine-1-methyl]
- activation of PFI-013 by histaminergic compounds (PFI-013 [2]): activated

Compound: Cl.Cl.NCCc1c[nH]cn1 [histamine dihydrochloride]
- chemotactic response of isolated human eosinophils [3]: induced a significant chemotactic response
